Values quoted from earlier work as cited in patent US11723873B2, “Oral dosage form of ticagrelor and preparation method thereof” (Elite Pharmaceutical Solution Inc., priority 2021, dated 2023).

Legend:
[1] = in vivo
[2] = room temperature, crystalline powder

Tmax range of formation of the major circulating metabolite [1] [h] | median time (Tmax) of formation of the major circulating metabolite [1] | aqueous solubility [2] | Structure (SMILES)
1.5 to 5.0 | approximately 2.5 hours | – | CCCSc1nc(N[C@@H]2C[C@H]2c2ccc(F)c(F)c2)c2nnn([C@@H]3C[C@H](O)[C@@H](O)[C@H]3O)c2n1 [AR-C124910XX]
– | – | approximately 10 μg/mL | CCCSc1nc(N[C@@H]2C[C@H]2c2ccc(F)c(F)c2)c2nnn([C@@H]3C[C@H](OCCO)[C@@H](O)[C@H]3O)c2n1 [ticagrelor, (1S,2S,3R,5S)-3-[7-{[(1R,2S)-2-(3,4-difluorophenyl)cyclopropyl]amino}-5-(propylthio)-3H-[1,2,3]-triazolo[4,5-d]pyrimidin-3-yl]-5-(2-hydroxyethoxy)cyclopentane-1,2-diol]
